US12528816B2, “Substituted imidazo [1,2-b] pyridazines and [1, 2, 4] triazolo [ 4,3-b] pyridazines as camkii inhibitors” (Cardurion Pharmaceuticals, INC., priority 2020, dated 2026)

biological target: T1, human CaMKIIδ (Homo sapiens, UniProt Q13557); experiment: Evaluation of in vitro CaMKII inhibitory activity (binding assay, TR-FRET); conditions: human CaMKIIδ, TR-FRET binding assay; class symbols A/B/C; read-out: Act (CaMKII inhibitory activity, binding assay)
T1 construct: Full-length, glutathione-S-transferase(GST)-tagged, human CaMKIIδ was purchased from Carna Biosciences; purchased Carna Biosciences (CaMKIIδ); Wako Pure Chemical Industries (calmodulin) 02-111
In short: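 Inhibitors, in eight concentrations of 4-fold dilution, were incubated 1 h at room temperature with a protein–fluorescent probe premix preformed 30 min on ice, containing calmodulin and terbium anti-GST antibody. Displacement read by TR-FRET in duplicate; IC50 by logistic fitting.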

`C[C@@H](Cn1cnnn1)Oc1cc(-c2ccn3ncc(-c4ccc(C(F)F)cc4)c3n2)ccc1F` [compound 132] and `C[C@@H](Cn1cnnn1)Oc1cc(-c2ccn3ncc(-c4ccc(Cl)cc4)c3n2)ccc1F` [compound 135] fall in the same range of IC50: 0.01 to 0.1 µM for the first, 0.01 to 0.1 µM for the second.

First: COc1ccnc(-c2cnc3ccc(-c4cc(O[C@@H](C)Cn5cnnn5)ccn4)nn23)c1C#N [compound 486]
Second: [2H]C([2H])([2H])Oc1ccnc(-c2cnc3ccc(-c4ccc(F)c(O[C@@H](C)Cn5cnnn5)c4)nn23)c1C#N [Example 473, 2-[6-(4-fluoro-3-{[(2S)-1-(1H-tetrazol-1-yl)propan-2-yl]oxy}phenyl)imidazo[1,2-b]pyridazin-3-yl]-4-(methoxy-d3)pyridine-3-carbonitrile]
The IC50 of the first is higher: 0.01 to 0.1 µM for the first, less than 0.01 µM for the second.

Going from `COCCN1C(=O)c2cccc(-n3cnc4ccc(-c5ccc(F)c(O[C@@H](C)Cn6cnnn6)c5)nc43)c2C1=O` [compound 192] to `C[C@@H](Cn1cnnn1)Oc1cc(-c2ccc3ncn(-c4ncccc4C#N)c3n2)ccc1F` [Example 150, 2-[5-(4-fluoro-3-{[(2S)-1-(1H-tetrazol-1-yl)propan-2-yl]oxy}phenyl)-3H-imidazo[4,5-b]pyridin-3-yl]pyridine-3-carbonitrile], the IC50 falls from greater than 0.1 µM to less than 0.01 µM.

Compared with `C[C@@H](Cn1cnnn1)Oc1cc(-c2ccn3ncc(-c4cccc(N5CCOCC5)c4)c3n2)ccc1F` [compound 47], `C[C@@H](Cn1cnnn1)Oc1cc(-c2ccn3ncc(-c4cccc(C(=O)O)c4)c3n2)ccc1F` [compound 7] is lower in IC50: 0.01 to 0.1 µM for the first, less than 0.01 µM for the second.

`COc1ncc(C#N)cc1-c1cnc2ccc(-c3ccc(F)c(O[C@@H](C)Cn4cnnn4)c3)nn12` [compound 219] and `C[C@@H](Cn1cnnn1)Oc1cc(-c2ccc3ncc(-c4cccc(OCCOCCN(C)C)c4C#N)n3n2)ccc1F` [compound 209] cannot be ordered by IC50: less than 0.01 µM for the first, less than 0.01 µM for the second.

`C[C@@H](Cn1cnnn1)Oc1cc(-c2ccn3ncc(-c4cccnc4C#N)c3n2)ccc1F` [compound 137] and `C[C@@H](Cn1cnnn1)Oc1cc(-c2ccn3ncc(-c4cccc(F)c4C#N)c3n2)ccc1F` [compound 154] cannot be ordered by IC50: less than 0.01 µM for the first, less than 0.01 µM for the second.

`CC(=O)NCCCNC(=O)c1cccc(-c2cnn3ccc(-c4cccc(O[C@@H](C)Cn5cnnn5)c4)nc23)c1` [compound 102] and `C[C@@H](Cn1cnnn1)Oc1cccc(-c2ccn3ncc(-c4cccc(C(=O)NCCN5CCOCC5)c4)c3n2)c1` [compound 67] cannot be ordered by IC50: less than 0.01 µM for the first, less than 0.01 µM for the second.

Compared with `CCN(CC)CCNC(=O)c1cccc(-n2cnc3ccc(-c4ccc(F)c(O[C@@H](C)Cn5cnnn5)c4)nc32)c1` [compound 12], `CCN(CC)CCNC(=O)c1cccc(-n2cnc3ccc(-c4ccc(C#N)c(O[C@@H](C)Cn5cnnn5)c4)nc32)c1` [compound 11] is higher in IC50: less than 0.01 µM for the first, greater than 0.1 µM for the second. The first is the more potent here.

`C[C@@H](Cn1cnnn1)Oc1cc(-c2ccn3ncc(-c4cn(C)nc4C#N)c3n2)ccc1F` [compound 164] and `C[C@@H](Cn1cnnn1)Oc1cc(-c2ccn3ncc(-c4cnn(C)c4C#N)c3n2)ccc1F` [compound 163] cannot be ordered by IC50: less than 0.01 µM for the first, less than 0.01 µM for the second.

`C[C@@H](Cn1cnnn1)Oc1cc(-c2ccn3ncc(-c4ccc(CN(C)C)cc4)c3n2)ccc1F` [compound 41] and `CC(=O)Nc1ccc(-c2cnn3ccc(-c4ccc(F)c(O[C@@H](C)Cn5cnnn5)c4)nc23)cc1` [compound 38] cannot be ordered by IC50: less than 0.01 µM for the first, less than 0.01 µM for the second.

First: C[C@@H](Cn1cnnn1)Oc1cc(-c2ccc3ncc(-c4cn(CC(=O)NCCN5CCOCC5)nc4C#N)n3n2)ccc1F [compound 127]
Second: C[C@@H](Cn1cnnn1)Oc1cc(-c2ccc3ncc(-c4cccs4)n3c2)ccc1F [compound 17]
The IC50 of the first is higher: greater than 0.1 µM for the first, 0.01 to 0.1 µM for the second.

`COc1cccc(-c2cnn3ccc(-c4ccc(F)c(O[C@@H](C)Cn5cnnn5)c4)nc23)c1` [compound 32] and `C[C@@H](Cn1cncn1)Oc1cccc(-c2ccn3ncc(-c4cccs4)c3n2)c1` [Example 61, 1-[(2S)-2-{3-[3-(thiophen-2-yl)pyrazolo[1,5-a]pyrimidin-5-yl]phenoxy}propyl]-1H-1,2,4-triazole] cannot be ordered by IC50: less than 0.01 µM for the first, less than 0.01 µM for the second.

With `[2H]C([2H])([2H])Oc1cc(F)cc(-n2cnc3ccc(-c4cccc(O[C@@H](C)Cn5cnnn5)n4)nc32)c1C#N` [Example 474, 4-fluoro-2-(methoxy-d3)-6-[5-(6-{[(2S)-1-(1H-tetrazol-1-yl)propan-2-yl]oxy}pyridin-2-yl)-3H-imidazo[4,5-b]pyridin-3-yl]benzonitrile] the IC50 was less than 0.01 µM.

same assay, conditions: in vitro CaMKII inhibitory activity (binding assay), human CaMKIIδ; read-out: Act

`COc1nccc(-c2cnc3ccc(-c4ccc(F)c(O[C@@H](C)Cn5cnnn5)c4)nn23)c1C#N` [Example 399, 4-[6-(4-fluoro-3-{[(2S)-1-(1H-tetrazol-1-yl)propan-2-yl]oxy}phenyl)imidazo[1,2-b]pyridazin-3-yl]-2-methoxypyridine-3-carbonitrile] and `COc1ccc(-c2cnc3ccc(-c4ccc(F)c(O[C@@H](C)Cn5cnnn5)c4)nn23)c(C#N)n1` [compound 249] cannot be ordered by IC50: less than 0.01 µM for the first, less than 0.01 µM for the second.

First: COc1cc(F)cc(-n2cnc3ccc(-c4ccc(F)c(O[C@@H](C)Cn5cnnn5)n4)nc32)c1C#N [compound 439]
Second: C[C@@H](Cn1cnnn1)Oc1cccc(-c2ccc3ncn(-c4cc(F)cc(C(F)F)c4C#N)c3n2)n1 [compound 407]
The IC50 of the first is lower: less than 0.01 µM for the first, 0.01 to 0.1 µM for the second. The first is the more potent here.

Going from `C[C@@H](Cn1cnnn1)Oc1cncc(-c2ccc3ncn(-c4cc(C(F)F)ccc4C#N)c3n2)n1` [compound 384] to `C[C@@H](Cn1cnnn1)Oc1cccc(-c2ccc3ncn(-c4cc(C(F)F)ccc4C#N)c3n2)c1` [Example 383, 4-(difluoromethyl)-2-[5-(3-{[(2S)-1-(1H-tetrazol-1-yl)propan-2-yl]oxy}phenyl)-3H-imidazo[4,5-b]pyridin-3-yl]benzonitrile], the IC50 falls from greater than 0.1 µM to less than 0.01 µM.

`COc1cc(-c2cnc3ccc(-c4cccc(O[C@@H](C)Cn5cnnn5)n4)nn23)c(C#N)cn1` [compound 463] and `COc1cccc(-c2cnc3ccc(-c4cncc(O[C@@H](C)Cn5cnnn5)n4)nn23)c1C#N` [compound 428, 2-methoxy-6-[6-(6-{[(2S)-1-(1H-tetrazol-1-yl)propan-2-yl]oxy}pyrazin-2-yl)imidazo[1,2-b]pyridazin-3-yl]benzonitrile] cannot be ordered by IC50: less than 0.01 µM for the first, less than 0.01 µM for the second.

`COc1ccnc(-c2cnc3ccc(-c4cccc(O[C@@H](C)Cn5cnnn5)c4)nn23)c1C#N` [Example 300, 4-methoxy-2-[6-(3-{[(2S)-1-(1H-tetrazol-1-yl)propan-2-yl]oxy}phenyl)imidazo[1,2-b]pyridazin-3-yl]pyridine-3-carbonitrile] and `COc1ccc(C#N)c(-c2cnc3ccc(-c4cccc(O[C@@H](C)Cn5cnnn5)c4)nn23)n1` [Example 313, 6-methoxy-2-[6-(3-{[(2S)-1-(1H-tetrazol-1-yl)propan-2-yl]oxy}phenyl)imidazo[1,2-b]pyridazin-3-yl]pyridine-3-carbonitrile] cannot be ordered by IC50: less than 0.01 µM for the first, less than 0.01 µM for the second.

`C[C@@H](Cn1cnnn1)Oc1cccc(-c2ccc3ncc(-c4ncc(F)cc4C#N)n3n2)c1` [compound 450] and `C[C@@H](Cn1cnnn1)Oc1cccc(-c2ccc3ncc(-c4cc(F)cnc4OCC#N)n3n2)c1` [compound 359] cannot be ordered by IC50: less than 0.01 µM for the first, less than 0.01 µM for the second.

Compared with `C[C@@H](Cn1cnnn1)Oc1cccc(-c2ccc3ncc(-c4cc[n+]([O-])cc4C#N)n3n2)c1` [compound 282], `C[C@@H](Cn1cnnn1)Oc1cc(-c2ccc3ncc(-c4c[n+]([O-])ccc4C#N)n3n2)ccc1F` [Example 269, (S)-3-(6-(3-((1-(1H-tetrazol-1-yl)propan-2-yl)oxy)-4-fluorophenyl)imidazo[1,2-b]pyridazin-3-yl)-4-cyanopyridine N-oxide] is lower in IC50: 0.01 to 0.1 µM for the first, less than 0.01 µM for the second.

`COc1cc(-c2cnc3ccc(-c4cccc(O[C@@H](C)Cn5cnnn5)c4)nn23)c(F)cn1` [compound 351] and `COc1ncc(Cl)cc1-c1cnc2ccc(-c3cccc(O[C@@H](C)Cn4cnnn4)c3)nn12` [compound 323] cannot be ordered by IC50: less than 0.01 µM for the first, less than 0.01 µM for the second.

Compared with `C[C@@H](Cn1cnnn1)Oc1cc(-c2ccc3ncc(-c4c(C#N)c(=O)ccn4CF)n3n2)ccc1F` [compound 436], `C[C@@H](Cn1cnnn1)Oc1cc(-c2ccc3ncc(-c4nccnc4C#N)n3n2)ccc1F` [compound 290] is lower in IC50: 0.01 to 0.1 µM for the first, less than 0.01 µM for the second. The second is the more potent here.

`C[C@@H](Cn1cnnn1)Oc1cccc(-c2ccc3ncc(-c4ccccc4CN(C)C)n3n2)c1` [compound 307] and `C[C@@H](Cn1cnnn1)Oc1cccc(-c2ccc3ncc(-c4ccccc4CN=S(C)(C)=O)n3n2)c1` [compound 306] fall in the same range of IC50: 0.01 to 0.1 µM for the first, 0.01 to 0.1 µM for the second.

First: C[C@@H](Cn1cnnn1)Oc1cccc(-c2ccc3nnc(-c4ccccc4C#N)n3n2)c1 [compound 373]
Second: C[C@@H](Cn1cnnn1)Oc1cncc(-c2ccc3ncc(-c4ccccc4C#N)n3n2)c1 [Example 244, 2-[6-(5-{[(2S)-1-(1H-tetrazol-1-yl)propan-2-yl]oxy}pyridin-3-yl)imidazo[1,2-b]pyridazin-3-yl]benzonitrile]
The IC50 of the first is higher: greater than 0.1 µM for the first, less than 0.01 µM for the second. The second is the more potent here.

`C[C@@H](Cn1cnnn1)Oc1cccc(-c2ccn3ncc(-c4ncccc4C#N)c3n2)c1` [compound 304] and `C[C@@H](Cn1cnnn1)Oc1cccc(-c2ccc3ncc(-c4ccc[nH]c4=O)n3n2)c1` [compound 252, 3-[6-(3-{[(2S)-1-(1H-tetrazol-1-yl)propan-2-yl]oxy}phenyl)imidazo[1,2-b]pyridazin-3-yl]-1,2-dihydropyridin-2-one] cannot be ordered by IC50: less than 0.01 µM for the first, less than 0.01 µM for the second.

Compared with `C[C@@H](Cn1cnnn1)Oc1cccc(-c2ccc3ncc(-c4ccc(F)c(F)c4C#N)n3n2)n1` [compound 460], `C[C@@H](Cn1cnnn1)Oc1cccc(-c2ccc3ncc(-c4cc(F)cc(C(F)F)c4C#N)n3n2)n1` [Example 417, 2-(difluoromethyl)-4-fluoro-6-[6-(6-{[(2S)-1-(1H-tetrazol-1-yl)propan-2-yl]oxy}pyridin-2-yl)imidazo[1,2-b]pyridazin-3-yl]benzonitrile] is lower in IC50: 0.01 to 0.1 µM for the first, less than 0.01 µM for the second. The second is the more potent here.
